# In patent US20240285664A1, “LINE-1 INHIBITORS AS COGNITIVE ENHANCERS” (TRANSPOSON THERAPEUTICS, INC., priority 2021, published 2024):
# Entries after “also recorded” stand apart in the source; their conditions may differ.
# Test system: human LINE-1
# Assay: Human LINE-1 retrotransposition assay (HeLa cell-based dual-luciferase reporter)
# Conditions: HeLa cells, reporter plasmid pYX017, 72 h incubation, Firefly/Renilla luciferase; read-out: Human LINE-1 IC50 (μM), Human L1 activity inhibition
# Method: Islatravir and other compounds were tested for inhibition of retrotransposition activity of human LINE-1 in HeLa cells according to the following procedure.
# HeLa cervical cancer cells were cultivated at 37° C. in a humidified 5% CO2 incubator in Dulbecco's Modified Eagle's Medium (DMEM)—high glucose, with 4500 mg/L glucose, L-glutamine, sodium pyruvate and sodium bicarbonate (Sigma), supplemented with 10% of heat inactivated fetal bovine serum (Thermo Fisher).
# Assays were performed using reporter plasmid pYX017 as described (Xie, et al., 2011) with several modifications. The reporter assay was performed in 96-well white optical bottom plates. HeLa cells were seeded in wells 24 h prior to transfection and compound treatment so that cells were approximately 30% confluent on the day of transfection. Different cell plating densities were tested and a density of 2×10^3 cells was determined to be optimal.
# Compounds were resuspended in DMSO. Serial dilutions (1:3) were prepared in DMSO. Medium containing different concentrations of the compounds were prepared by adding 2 μl of the compound dilution to 1 ml of the culture medium. The final concentration of DMSO in the medium was 0.2%.
# FuGENE® HD transfection reagent (Promega, E2311, Lot 382574 and Lot 397842) was used to transfect the plasmids into the cells. The transfection reagent: DNA mixture was prepared in OpiMEM (Thermo Fisher) according to manufacturer's instructions. Different ratios of transfection reagent to DNA were tested and a ratio of 3:1 was determined to be optimal. Culture medium was removed from the cells and discarded. The transfection reagent: DNA mixture (5 μl) was mixed with the compound containing medium (100 μl/well) and this was added onto the cells of each well. Cells were incubated at 37° C./5% C02 for different incubation time. A 72 h incubation time was determined to be optimal.
# Luciferase reporter activity was quantified with the Dual-Luciferase® Reporter Assay System (Promega) according to manufacturer's instructions for multiwell plates except that cells were lysed directly on the multiwell plate with 30 μl of the passive lysis buffer (PLB) for 20 min at room temperature, with gentle shaking to ensure complete cell lysis.
# Firefly and Renilla luciferase signals were measured using a SpectraMax i3x Multi-Mode Microplate Reader. Integration times of 100 ms and 10 ms were used to measure the Firefly and Renilla signals respectively. Relative L1 activity is calculated as Firefly/Renilla*1000 or Firefly/Renilla*10,000. Dose response inhibition data were fit to a four parameter logistic equation using non-linear regression (using Graphpad Prism 8), to determine IC50 values for each inhibitor.
row,IC50,SMILES
1,2.77 µM,C[C@H](Cn1cnc2c(N)ncnc21)OCP(=O)(O)O [Tenofovir]

# Same assay, conditions: HeLa cells, summary of Table 1
row,SMILES,human LINE-1 inhibitor activity compared to the other reverse transcriptase inhibitors tested (in words)
1,"C#C[C@@]1(CO)C=C[C@H](n2cc(C)c(=O)[nH]c2=O)O1 [Censavudine, 4′-ethynylstavudine]",unexpectedly better human LINE-1 inhibitor activity; also recorded: surprisingly potent
2,"C#C[C@]1(CO)O[C@@H](n2cnc3c(N)nc(F)nc32)C[C@@H]1O [Islatravir, 2′-deoxy-4′-ethynyl-2-fluoroadenosine]",unexpectedly better human LINE-1 inhibitor activity

# Same assay, conditions: HeLa cells, summary of Table 1; listed as islatravir
row,SMILES,human LINE-1 inhibitor activity compared to the other reverse transcriptase inhibitors tested (in words)
1,"C#C[C@]1(CO)O[C@@H](n2cnc3c(N)nc(F)nc32)C[C@@H]1O [Islatravir, 2′-deoxy-4′-ethynyl-2-fluoroadenosine]",surprisingly potent

# Same assay, conditions: Homo sapiens; HeLa cells, reporter plasmid pYX017, 72 h incubation, Firefly/Renilla luciferase; read-out: Human LINE-1 IC50 (μM), Human L1 activity inhibition
row,SMILES,IC50
1,O=C(NCc1c(F)cc(F)cc1F)c1cn2c(c(O)c1=O)C(=O)N1[C@H]3CC[C@H](C3)O[C@@H]1C2 [Bictegravir],> 12.4 µM
2,"C#C[C@@]1(CO)C=C[C@H](n2cc(C)c(=O)[nH]c2=O)O1 [Censavudine, 4′-ethynylstavudine]",0.07 µM
3,C#C[C@]1(CO)O[C@@H](n2cc(C)c(O)nc2=O)C[C@@H]1O [Cpd. No. 2],0.393 µM
4,C#C[C@]1(CO)O[C@@H](n2cc(Br)c(O)nc2=O)C[C@@H]1O [Cpd. No. 4],0.489 µM
5,"C#C[C@]1(CO)O[C@@H](n2ccc(N)nc2=O)C[C@@H]1O [Cpd. No. 7, 4-amino-1-((2R,4S,5R)-5-ethynyl-4-hydroxy-5 (hydroxymethyl)tetrahydrofuran-2-yl)pyrimidin-2(1H)-one]",0.0091 µM
6,C#C[C@]1(CO)O[C@@H](n2cc(F)c(N)nc2=O)C[C@@H]1O [Cpd. No. 9],0.0209 µM
7,C=C[C@]1(CO)O[C@@H](n2ccc(N)nc2=O)C[C@@H]1O [Cpd. No. 24],0.008 µM
8,CC[C@]1(CO)O[C@@H](n2cc(C)c(=O)[nH]c2=O)C[C@@H]1O [Cpd. No. 26],2 µM
9,C[C@@H]1CCO[C@H]2Cn3cc(C(=O)NCc4ccc(F)cc4F)c(=O)c(O)c3C(=O)N12 [Dolutegravir sodium],> 9.38 µM
10,O=C1Nc2ccc(Cl)cc2[C@@](C#CC2CC2)(C(F)(F)F)O1 [Efavirenz],> 0.25 µM
11,Nc1ccn([C@@H]2CS[C@H](CO)O2)c(=O)n1 [Lamivudine],0.64 µM
12,Cc1ccnc2c1NC(=O)c1cccnc1N2C1CC1 [Nevirapine],> 50 µM
13,Cc1nnc(C(=O)NC(C)(C)c2nc(C(=O)NCc3ccc(F)cc3)c(O)c(=O)n2C)o1 [Raltegravir potassium],> 9.86 µM
14,Cc1cc(/C=C/C#N)cc(C)c1Nc1ccnc(Nc2ccc(C#N)cc2)n1 [Rilpivirine],> 15.1 µM
15,Cc1cn([C@H]2C=C[C@@H](CO)O2)c(=O)[nH]c1=O [Stavudine],0.75 µM
16,Cc1cn([C@H]2C[C@H](N=[N+]=[N-])[C@@H](CO)O2)c(=O)[nH]c1=O [Zidovudine],0.81 µM

# Other lines, results leading:
row,IC50,SMILES
1,0.00051 µM,C#C[C@]1(CO)O[C@@H](n2cnc3c(O)nc(N)nc32)C[C@@H]1O [Cpd. No. 13]
2,0.011 µM,C=C[C@]1(CO)O[C@@H](n2cnc3c(N)nc(F)nc32)C[C@@H]1O [Cpd. No. 20]
3,> 50 µM,C#C[C@]1(CO)O[C@@H](n2cnc3c(N)ncnc32)C[C@@H]1O [Cpd. No. 23]
4,0.003 µM,CC[C@]1(CO)O[C@@H](n2cnc3c(O)nc(N)nc32)C[C@@H]1O [Cpd. No. 27]
5,0.09 µM,Nc1nc(=O)n([C@@H]2C=C[C@H](CO)O2)cc1F [Elvucitabine]
6,0.2 µM,CC(C)OC(=O)OCOP(=O)(CO[C@H](C)Cn1cnc2c(N)ncnc21)OCOC(=O)OC(C)C [Tenofovir disoproxil]
